# Experimental data reported in ChEMBL document CHEMBL1201862, “PubChem BioAssay data set” (2004).
# “And” between values parts separate entries of the source, which are not always exact repeats. Equal values may be shown once. The source made the active and inactive calls.
# How the values were obtained:
# [1] = HEK293T cell cytotoxicity, dose response, cytotoxicity control for HIV Vif inhibitor project, cherry-picks (AID 652208); format: functional, cell-based
# Bcl-2-related protein A1 [2] = molecular target: T1, Bcl-2-related protein A1 (Mus musculus, UniProt Q07440); test: Bfl-1 binding inhibitors, SAR follow-up, biochemical, fluorescence polarization (AID 1070)
# T1 sequence (Q07440 whole entry): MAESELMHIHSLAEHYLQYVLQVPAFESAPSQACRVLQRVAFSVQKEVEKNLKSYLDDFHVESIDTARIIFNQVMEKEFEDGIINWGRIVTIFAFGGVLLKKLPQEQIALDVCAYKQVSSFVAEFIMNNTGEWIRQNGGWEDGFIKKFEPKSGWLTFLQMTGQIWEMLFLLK
# Bcl-2-related protein A1 [3] = molecular target: T1, Bcl-2-related protein A1; test: Bfl-1 inhibitors, primary screen, biochemical, fluorescence polarization, FITC-Bid, mouse (AID 432)
# [4] = growth suppression of PTEN-null colon cells, dose response, cell-based, HCT116 PTEN knockout (AID 1047); format: functional;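 also: HCT116 colon tumor cells with PTEN knocked out; cells exposed to compound for 60 hours before readout; potency for loss of cell viability measured by luminescence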
# [5] = cytotoxicity in HPDE-C7 cells, cell-based, fluorescence, HTS (AID 430); format: functional; conditions: Homo sapiens
# Bcl-2-related protein A1 [6] = molecular target: T1, Bcl-2-related protein A1; test: Bfl-1 inhibitors blocking BH3 peptide binding, confirmation, biochemical, TR-FRET, mouse Bfl-1 (AID 621);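 also: TR-FRET binding of GST-Bfl-1 to FITC-labelled Bid peptide via terbium antibody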
# [7] = cytotoxicity in KRAS-transformed pancreatic duct cells, primary screen, cell-based, fluorescence, HTS (AID 431); format: functional; conditions: Homo sapiens;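 also: cell line used: HPDE-C7K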
# [8] = molecular target: Glyceraldehyde-3-phosphate dehydrogenase (Homo sapiens, UniProt P04406)
# Sequence of Glyceraldehyde-3-phosphate dehydrogenase (P04406 whole entry): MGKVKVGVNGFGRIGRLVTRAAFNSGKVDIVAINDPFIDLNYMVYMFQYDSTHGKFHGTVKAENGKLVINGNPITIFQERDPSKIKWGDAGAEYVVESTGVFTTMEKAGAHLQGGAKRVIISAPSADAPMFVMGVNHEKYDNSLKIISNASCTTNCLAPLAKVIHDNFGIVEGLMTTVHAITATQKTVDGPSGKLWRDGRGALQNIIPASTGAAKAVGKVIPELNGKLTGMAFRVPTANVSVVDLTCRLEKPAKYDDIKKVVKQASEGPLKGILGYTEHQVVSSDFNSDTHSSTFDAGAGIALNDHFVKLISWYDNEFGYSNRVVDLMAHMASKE
# [9] = molecular target: T2, Heat shock factor protein 1 (Mus musculus, UniProt P38532); test: HSF1 potentiators in luciferase reporter cells, confirmation, cell-based, NIH3T3, luminescence, dose retest (AID 435004); format: functional;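 also: stress induced by proteasome inhibitor MG132 added 30 min after compound; luciferase reporter driven by HSF1 response element in NIH3T3 cells; actives raise luminescence as potentiators of the MG132 stress response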
# T2 sequence (P38532 whole entry): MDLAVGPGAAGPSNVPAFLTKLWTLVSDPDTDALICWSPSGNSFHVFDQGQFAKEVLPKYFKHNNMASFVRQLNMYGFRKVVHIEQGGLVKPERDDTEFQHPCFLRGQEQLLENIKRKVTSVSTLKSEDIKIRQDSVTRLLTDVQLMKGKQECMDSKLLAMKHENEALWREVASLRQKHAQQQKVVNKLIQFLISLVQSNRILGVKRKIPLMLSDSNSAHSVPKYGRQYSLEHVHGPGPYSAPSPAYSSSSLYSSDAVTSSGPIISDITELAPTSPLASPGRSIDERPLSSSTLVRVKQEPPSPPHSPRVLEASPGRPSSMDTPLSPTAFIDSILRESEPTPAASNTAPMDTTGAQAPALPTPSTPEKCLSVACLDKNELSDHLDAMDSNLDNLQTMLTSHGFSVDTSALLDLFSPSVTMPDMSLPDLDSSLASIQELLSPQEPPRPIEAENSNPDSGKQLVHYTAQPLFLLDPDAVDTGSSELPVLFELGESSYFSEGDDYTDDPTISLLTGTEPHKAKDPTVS
# [10] = molecular target: T3, Trace amine-associated receptor 1 (Homo sapiens, UniProt Q96RJ0); test: Counterscreen for antagonists of the human trace amine associated receptor 1 (hTAAR1): Fluorescence-based cell-based high throughput dose response assay to identify TAAR1 Agonists.; format: functional
# T3 sequence (Q96RJ0 whole entry): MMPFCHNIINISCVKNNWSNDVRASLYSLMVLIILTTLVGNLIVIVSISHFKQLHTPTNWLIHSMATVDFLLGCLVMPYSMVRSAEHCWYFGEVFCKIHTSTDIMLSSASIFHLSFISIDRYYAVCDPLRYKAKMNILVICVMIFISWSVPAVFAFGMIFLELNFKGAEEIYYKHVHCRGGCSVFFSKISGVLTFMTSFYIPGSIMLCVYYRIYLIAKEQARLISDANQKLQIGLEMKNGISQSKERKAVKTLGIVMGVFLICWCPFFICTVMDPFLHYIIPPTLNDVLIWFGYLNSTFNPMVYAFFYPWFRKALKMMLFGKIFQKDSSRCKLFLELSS
# [11] = molecular target: T3, Trace amine-associated receptor 1; test: Fluorescence-based cell-based high throughput dose response assay to identify antagonists of the human trace amine associated receptor 1 (TAAR1).; format: functional
# [12] = Counterscreen for […] of the human trace amine associated receptor 1 (TAAR1): Fluorescence-based cell-based high throughput dose response assay to identify nonselective Ga16 agonists.; format: functional
# [13] = Counterscreen for antagonists of the human trace amine associated receptor 1 (hTAAR1): Fluorescence-based cell-based high throughput dose response assay to identify nonselective Ga16 antagonists.; format: functional
# [14] = molecular target: T4, Neuropeptide Y receptor type 2 (Homo sapiens, UniProt P49146); format: functional, cell-based;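 also: HEK293 cells expressing the receptor and a CNG channel; stimulus was NPY near EC95 followed by isoproterenol to raise cAMP; antagonist potency measured as restoring cAMP signal that NPY suppresses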
# T4 sequence (P49146 whole entry): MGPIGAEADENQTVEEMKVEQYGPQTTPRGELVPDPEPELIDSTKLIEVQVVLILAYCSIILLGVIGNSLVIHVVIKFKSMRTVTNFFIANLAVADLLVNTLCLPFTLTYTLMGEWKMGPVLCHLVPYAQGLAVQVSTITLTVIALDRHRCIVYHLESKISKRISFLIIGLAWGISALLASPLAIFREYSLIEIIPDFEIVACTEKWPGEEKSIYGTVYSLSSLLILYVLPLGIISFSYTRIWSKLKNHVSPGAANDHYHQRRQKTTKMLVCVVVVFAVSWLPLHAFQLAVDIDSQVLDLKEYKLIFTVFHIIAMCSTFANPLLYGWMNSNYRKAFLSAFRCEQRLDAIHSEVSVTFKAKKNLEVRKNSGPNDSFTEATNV
# [15] = Counterscreen for activators of the function of SWI/SNF related, matrix associated, actin dependent regulator of chromatin, subfamily a, member 2 (SMARCA2, BRM): Luminescence-based cell-based high throughput dose response assay to identify non-selective compounds using the VP16 reporter assay.; format: functional
# [16] = molecular target: SWI/SNF-related matrix-associated actin-dependent regulator of chromatin subfamily A member 2 (Homo sapiens, UniProt P51531); test: Luminescence-based cell-based high throughput dose response assay to identify activators of the function of SWI/SNF related, matrix associated, actin dependent regulator of chromatin, subfamily a, member 2 (SMARCA2, BRM).; format: functional
# Sequence of SWI/SNF-related matrix-associated actin-dependent regulator of chromatin subfamily A member 2 (P51531 whole entry): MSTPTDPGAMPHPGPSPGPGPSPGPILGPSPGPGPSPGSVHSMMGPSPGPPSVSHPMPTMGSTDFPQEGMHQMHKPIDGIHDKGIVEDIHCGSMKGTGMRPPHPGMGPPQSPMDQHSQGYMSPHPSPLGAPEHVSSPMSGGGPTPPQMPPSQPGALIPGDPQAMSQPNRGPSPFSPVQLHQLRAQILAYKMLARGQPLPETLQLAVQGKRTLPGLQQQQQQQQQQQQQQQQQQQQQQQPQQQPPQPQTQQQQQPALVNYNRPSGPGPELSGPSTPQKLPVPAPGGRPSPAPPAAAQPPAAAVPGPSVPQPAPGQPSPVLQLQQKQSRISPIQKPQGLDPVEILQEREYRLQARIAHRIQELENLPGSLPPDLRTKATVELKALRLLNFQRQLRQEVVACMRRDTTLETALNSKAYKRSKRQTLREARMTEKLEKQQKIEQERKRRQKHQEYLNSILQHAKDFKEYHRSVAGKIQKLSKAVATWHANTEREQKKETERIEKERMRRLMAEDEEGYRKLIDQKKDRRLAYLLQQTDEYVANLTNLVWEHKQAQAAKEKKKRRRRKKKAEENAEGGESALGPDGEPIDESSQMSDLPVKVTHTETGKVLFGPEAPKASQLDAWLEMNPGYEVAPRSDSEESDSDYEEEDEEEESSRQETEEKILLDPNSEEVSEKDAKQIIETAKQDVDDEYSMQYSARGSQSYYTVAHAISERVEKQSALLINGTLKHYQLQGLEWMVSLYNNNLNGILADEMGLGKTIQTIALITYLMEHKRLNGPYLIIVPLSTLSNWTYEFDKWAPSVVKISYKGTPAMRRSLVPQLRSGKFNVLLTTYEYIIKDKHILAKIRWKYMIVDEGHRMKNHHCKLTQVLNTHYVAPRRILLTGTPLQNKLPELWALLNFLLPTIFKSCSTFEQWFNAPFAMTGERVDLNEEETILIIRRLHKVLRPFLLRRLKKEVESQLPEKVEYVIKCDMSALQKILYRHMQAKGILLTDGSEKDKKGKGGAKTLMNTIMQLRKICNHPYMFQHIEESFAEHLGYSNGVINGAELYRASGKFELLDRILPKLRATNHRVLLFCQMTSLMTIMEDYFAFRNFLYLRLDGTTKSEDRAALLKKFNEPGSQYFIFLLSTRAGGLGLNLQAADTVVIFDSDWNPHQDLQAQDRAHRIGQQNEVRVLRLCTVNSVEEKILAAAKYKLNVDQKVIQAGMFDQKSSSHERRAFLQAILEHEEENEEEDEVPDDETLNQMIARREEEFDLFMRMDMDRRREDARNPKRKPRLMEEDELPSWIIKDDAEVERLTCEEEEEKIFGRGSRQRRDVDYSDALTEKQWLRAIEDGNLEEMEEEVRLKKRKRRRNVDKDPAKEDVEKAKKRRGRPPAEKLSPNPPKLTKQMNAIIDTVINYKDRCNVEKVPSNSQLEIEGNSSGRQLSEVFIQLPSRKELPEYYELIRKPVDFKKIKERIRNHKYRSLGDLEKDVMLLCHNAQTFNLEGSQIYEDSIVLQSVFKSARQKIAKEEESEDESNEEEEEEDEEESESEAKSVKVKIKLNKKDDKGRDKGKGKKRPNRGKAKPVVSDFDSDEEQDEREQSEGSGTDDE
# cells [17] = format: functional, cell-based
# [18] = molecular target: T5, Neuropeptide Y receptor type 1 (Homo sapiens, UniProt P25929); format: functional;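 also: HEK293 cells with a CNG channel challenged with NPY then isoproterenol; potency as antagonist that reverses NPY suppression of cAMP signal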
# T5 sequence (P25929 whole entry): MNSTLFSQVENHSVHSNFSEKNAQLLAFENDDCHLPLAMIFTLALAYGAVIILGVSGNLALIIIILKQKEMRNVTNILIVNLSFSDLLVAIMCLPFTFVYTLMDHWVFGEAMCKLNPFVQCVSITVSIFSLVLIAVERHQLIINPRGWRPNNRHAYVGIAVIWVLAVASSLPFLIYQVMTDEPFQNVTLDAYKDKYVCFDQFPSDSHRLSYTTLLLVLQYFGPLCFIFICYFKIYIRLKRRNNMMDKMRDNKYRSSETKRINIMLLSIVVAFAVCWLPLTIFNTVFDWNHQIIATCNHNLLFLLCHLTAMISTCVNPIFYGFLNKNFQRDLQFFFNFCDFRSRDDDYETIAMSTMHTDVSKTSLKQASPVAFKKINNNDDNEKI
# [19] = Luminescence Cell-Based Dose Response HTS to Identify Activators of Luciferase Translation or Activity in H4 […] Cells. [Related pubchem assays: 1829 (Project Summary), 1814 (Primary HTS)]; format: functional
# cells [20] = format: functional, cell-based; remark: listed apart in the source
# H4 = test: Luminescence Cell-Based Dose Response HTS to Identify Activators of 5'UTR Stem-Loop Driven Prion Protein mRNA Translation in H4 Neuroglioblastoma Cells. [Related pubchem assays: 1829 (Project Summary), 1814 (Primary HTS)]; format: functional; conditions: Homo sapiens
# [21] = Luminescence Cell-Based Dose Confirmation HTS to Identify Activators of 5'UTR Stem-Loop Driven Alpha-Synuclein mRNA Translation in H4 Neuroglioblastoma Cells. [Related pubchem assays: 1829 (Project Summary), 1814 (Primary HTS)]; format: functional
# Beta-galactosidase = Beta-galactosidase (Escherichia coli, UniProt Q8VNN2); test: Dose response counterscreen for EBI2 assay utilizing the enzyme, b-galactosidase.; format: functional
# Sequence of Beta-galactosidase (Q8VNN2 whole entry): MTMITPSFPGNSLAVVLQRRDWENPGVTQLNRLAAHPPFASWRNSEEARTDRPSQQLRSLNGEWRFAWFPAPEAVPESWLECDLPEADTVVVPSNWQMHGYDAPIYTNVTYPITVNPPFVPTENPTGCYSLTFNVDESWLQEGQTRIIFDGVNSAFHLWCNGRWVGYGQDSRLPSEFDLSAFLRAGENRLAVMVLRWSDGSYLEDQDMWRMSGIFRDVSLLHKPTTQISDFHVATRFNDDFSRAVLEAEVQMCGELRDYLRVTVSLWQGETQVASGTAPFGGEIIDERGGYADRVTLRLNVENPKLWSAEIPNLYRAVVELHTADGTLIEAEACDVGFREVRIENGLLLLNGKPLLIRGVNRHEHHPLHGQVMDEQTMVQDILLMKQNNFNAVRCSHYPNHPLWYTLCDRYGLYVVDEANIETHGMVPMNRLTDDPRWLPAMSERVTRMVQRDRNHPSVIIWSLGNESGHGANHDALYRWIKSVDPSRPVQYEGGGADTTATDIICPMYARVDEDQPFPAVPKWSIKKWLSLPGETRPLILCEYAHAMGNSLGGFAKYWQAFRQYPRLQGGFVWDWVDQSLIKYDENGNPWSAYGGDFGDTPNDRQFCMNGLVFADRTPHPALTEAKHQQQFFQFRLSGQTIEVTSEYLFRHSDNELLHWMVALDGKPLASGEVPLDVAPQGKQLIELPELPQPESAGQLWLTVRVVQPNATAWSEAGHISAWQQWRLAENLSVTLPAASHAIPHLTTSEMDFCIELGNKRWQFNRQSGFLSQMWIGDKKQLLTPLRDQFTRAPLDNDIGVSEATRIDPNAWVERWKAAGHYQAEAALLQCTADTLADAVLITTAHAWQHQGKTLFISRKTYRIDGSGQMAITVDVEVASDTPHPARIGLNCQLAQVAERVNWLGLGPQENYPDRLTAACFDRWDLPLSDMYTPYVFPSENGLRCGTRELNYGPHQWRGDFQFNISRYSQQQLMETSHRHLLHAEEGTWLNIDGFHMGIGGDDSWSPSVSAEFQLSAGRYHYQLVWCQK
# [22] = miR-122 activators in hepatoma reporter cells, dose response, cell-based, Huh7 psiCHECK-miR122, Renilla luciferase, cherry-picked (AID 651956); format: functional;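 also: huh7 hepatoma cells stably carrying a psiCHECK-2 miR-122 sensor plasmid; renilla luciferase signal reporting endogenous miR-122 activity after 48 h compound exposure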
# [23] = HEK293T cytotoxicity, dose response, cytotoxicity control for miR-122 modulator project, cell-based, inhibitor set, cherry-pick, set 2 (AID 720697); format: functional
structure (smiles),measurement,setting,value
COc1ccc(-c2cc(C(F)(F)F)nc(S(C)(=O)=O)n2)cc1OC,AC50,[1],13.2 µM (active)
same,IC50,Bcl-2-related protein A1 [2],23.2 µM (active)
same,IC50,Bcl-2-related protein A1 [3],25.4 µM (active)
same,EC50,[4],32.1 µM (active)
same,EC50,[5],4.49 µM (active)
same,IC50,Bcl-2-related protein A1 [6],12.7 µM (active) and 4.51 µM (active)
same,EC50,[7],3.47 µM (active)
same,IC50,[8],> 100 µM (not active)
same,EC50,[9],5.47 µM (active)
O=C(CCN1C(=O)C2C3C=CC(C3)C2C1=O)NCCc1ccccc1 (stereo not given),EC50,[10],> 29.9 µM (inactive)
same,IC50,[11],> 29.9 µM (inactive)
same,EC50,[12],> 29.9 µM (inactive)
same,IC50,[13],> 29.9 µM (inactive)
O=c1c2ccccc2nc2c3ccccc3c(NCCN3CCOCC3)nn12,IC50,[14],> 35 µM (not active)
same,EC50,[15],> 91.2 µM (inactive)
same,EC50,[16],> 10.1 µM (inactive)
same,EC50,cells [17],> 350 µM (not active)
same,IC50,[18],4.38 µM (active)
same,EC50,[19],18 µM (active)
same,EC50,cells [20],> 350 µM (not active)
same,EC50,H4,> 120 µM (inconclusive)
same,EC50,[21],> 120 µM (not active)
O=C(/C=C/c1ccc(F)cc1)N1CCN(Cc2ccccc2)CC1,IC50,Beta-galactosidase,> 80 µM (inactive)
C[C@H]1CN([C@@H](C)CO)S(=O)(=O)c2ccc(-c3ccc(C(=O)N(C)C)cc3)cc2O[C@H]1CN(C)C(=O)C1CCC1,AC50,[22],10.9 µM (active)
same,AC50,[23],2.2 µM (active)
